Our source for the solubility values is ChEMBL document CHEMBL1250533, “QSAR-based solubility model for drug-like compounds” (Bioorg Med Chem, 2010).

Each structure is given as a SMILES string. Values after ≈ are worked out from the molar mass of the structure shown.

A short description of one data set: Intrinsic solubility of the compound in water. The conditions noted are these: buffer.
`CN[C@H]1CC[C@@H](c2ccc(Cl)c(Cl)c2)c2ccccc21` [SERTRALINE]: the solubility (usually the concentration that dissolves in the medium under given conditions) amounted to 4.5 µg/mL (≈ 14.7 µM).

`CC(C(=O)O)c1cccc(Oc2ccccc2)c1` (centres undefined) [FENOPROFEN] showed a solubility of 48 µg/mL (≈ 198 µM).

`O=C1CN(/N=C/c2ccc([N+](=O)[O-])o2)C(=O)N1` [NITROFURANTOIN]: the solubility came out at 137 µg/mL (≈ 575 µM).

The compound `CN(C)CCCN1c2ccccc2Sc2ccc(Cl)cc21` [CHLORPROMAZINE] gave a solubility of 2.7 µg/mL (≈ 8.47 µM).

The compound `Cc1cccc(CN2CCN(C(c3ccccc3)c3ccc(Cl)cc3)CC2)c1` (centres undefined) [MECLIZINE] came in with a solubility of 0.13 µg/mL (≈ 0.333 µM).

For `CN1CCN(c2c(F)cc3c(=O)c(C(=O)O)cn4c3c2OCN4C)CC1` [MARBOFLOXACIN], the solubility result was “Soluble”.

For the compound `CNCCCC12CCC(c3ccccc31)c1ccccc12` [MAPROTILINE], the concentration in solution (solubility) came to 5.6 µg/mL (≈ 20.2 µM).

As to `CN(C)C(=O)C(CCN1CCC(O)(c2ccc(Cl)cc2)CC1)(c1ccccc1)c1ccccc1` [LOPERAMIDE], the solubility is 0.04 µg/mL (≈ 0.0838 µM).

For the compound `NC(N)=Nc1nc(CSCCC(N)=NS(N)(=O)=O)cs1` [FAMOTIDINE], the solubility stood at 760 µg/mL (≈ 2250 µM).

Compound `CC(=O)CC(c1ccccc1)c1c(O)c2ccccc2oc1=O` (centres undefined) [WARFARIN] displayed a solubility of 5.1 µg/mL (≈ 16.5 µM).

On to `CCN(CC)CCNC(=O)c1ccc(N)cc1` [PROCAINAMIDE], for which the solubility result is listed as “Soluble”.

With `O=C(O)c1cc(/N=N/c2ccc(S(=O)(=O)Nc3ccccn3)cc2)ccc1O` [SULFASALAZINE], the solubility was found to be 0.29 µg/mL (≈ 0.728 µM).

Take `CNC(=C[N+](=O)[O-])NCCSCc1ccc(CN(C)C)o1` [RANITIDINE]: the solubility was 990 µg/mL (≈ 3150 µM).

Compound `Cn1cnc([N+](=O)[O-])c1Sc1ncnc2nc[nH]c12` [AZATHIOPRINE] returned a solubility of 172 µg/mL (≈ 620 µM).

Turning to `O=C(O)C(O)c1ccccc1Cl` (centres undefined), the solubility result is listed as “Soluble”.

In the case of `O=c1[nH]cc(F)c(=O)[nH]1` [FLUOROURACIL], the solubility entry is “Soluble”.

`O=C(O)c1ccccc1C(=O)O` [PHTHALIC ACID]: the concentration in solution (solubility) was 4130 µg/mL (≈ 24900 µM).

`C[C@@H]1CN(c2c(F)c(F)c3c(=O)c(C(=O)O)cn(C4CC4)c3c2F)C[C@H](C)N1` [ORBIFLOXACIN]: the solubility result was “Soluble”.

For the compound `COc1ccccc1OCCNCC(O)COc1cccc2[nH]c3ccccc3c12` (centres undefined) [CARVEDILOL], the solubility worked out at 22.6 µg/mL (≈ 55.6 µM).

`CC1CCc2cc(F)cc3c(=O)c(C(=O)O)cn1c23` (centres undefined) [FLUMEQUINE] registered a solubility of 48 µg/mL (≈ 184 µM).

Take `CNCCC=C1c2ccccc2CCc2ccccc21` [NORTRIPTYLINE]: the concentration in solution (solubility) was 25 µg/mL (≈ 94.9 µM).

Consider `Cc1ccc(Cl)c(Nc2ccccc2C(=O)O)c1Cl` [MECLOFENAMIC ACID], for which the solubility was 0.16 µg/mL (≈ 0.54 µM).

As for `O=C(O)c1ccccc1O` [SALICYLIC ACID], the concentration in solution (solubility) was 1620 µg/mL (≈ 11700 µM).

The same data set, now with this note: water.
`c1ccc2[nH]c(-c3cscn3)nc2c1` [THIABENDAZOLE] displayed a solubility of 66 µg/mL (≈ 328 µM).

Turning to `CCCC(=O)Nc1ccc(OCC(O)CNC(C)C)c(C(C)=O)c1` (centres undefined) [ACEBUTOLOL], the solubility was found to be 711 µg/mL (≈ 2110 µM).

In turn, `Clc1ccc(COC(Cn2ccnc2)c2ccc(Cl)cc2Cl)c(Cl)c1` (centres undefined) [MICONAZOLE] had a solubility of 3.5 µg/mL (≈ 8.41 µM).

`OCCN(CCO)c1nc(N2CCCCC2)c2nc(N(CCO)CCO)nc(N3CCCCC3)c2n1` [DIPYRIDAMOLE]: the solubility worked out at 3.46 µg/mL (≈ 6.86 µM).

For the compound `CC(C(=O)O)c1ccc(-c2ccccc2)c(F)c1` (centres undefined) [FLURBIPROFEN], the solubility worked out at 17.2 µg/mL (≈ 70.4 µM).

Compound `CCCNC(=O)NS(=O)(=O)c1ccc(Cl)cc1` [CHLORPROPAMIDE] returned a solubility of 156 µg/mL (≈ 564 µM).

Turning to `CCCN(CCC)S(=O)(=O)c1ccc(C(=O)O)cc1` [PROBENECID], the solubility stood at 3.9 µg/mL (≈ 13.7 µM).

In turn, `Cc1ccc(C(=O)c2ccc(CC(=O)O)n2C)cc1` [TOLMETIN] showed a solubility of 21 µg/mL (≈ 81.6 µM).

Compound `CNCCCN1c2ccccc2CCc2ccccc21` [DESIPRAMINE] had a solubility of 63 µg/mL (≈ 236 µM).

`c1ccc(Cn2ccnc2)cc1` [BENZYLIMIDAZOLE]: the concentration in solution (solubility) came to 874 µg/mL (≈ 5520 µM).

For the compound `C=CCc1ccccc1OCC(O)CNC(C)C` (centres undefined) [ALPRENOLOL], the solubility is 580 µg/mL (≈ 2330 µM).

The compound `CN1CCN(C2=Nc3cc(Cl)ccc3Nc3ccccc32)CC1` [CLOZAPINE] returned a solubility of 189 µg/mL (≈ 578 µM).

`C[C@@H]1CN(c2c(F)c(N)c3c(=O)c(C(=O)O)cn(C4CC4)c3c2F)C[C@H](C)N1` [SPARFLOXACIN] displayed a solubility of 167 µg/mL (≈ 426 µM).

On to `CC(CN(C)C)CN1c2ccccc2CCc2ccccc21` (centres undefined) [TRIMIPRAMINE], for which the solubility is 4.8 µg/mL (≈ 16.3 µM).

`CCn1cc(C(=O)O)c(=O)c2ccc(C)nc21` [NALIDIXIC ACID] had a solubility of 57 µg/mL (≈ 245 µM).

Compound `CN(C)CCC=C1c2ccccc2CCc2ccccc21` [AMITRIPTYLINE] came in with a solubility of 7.8 µg/mL (≈ 28.1 µM).

`CCN1CCN(c2cc3c(cc2F)c(=O)c(C(=O)O)cn3C2CC2)CC1` [ENROFLOXACIN] had a solubility of 237 µg/mL (≈ 659 µM).

In the case of `COc1ccc(Cc2nccc3cc(OC)c(OC)cc23)cc1OC` [PAPAVERINE], the solubility came out at 46 µg/mL (≈ 136 µM).

In turn, `CC(C(=O)O)c1ccc2c(c1)[nH]c1ccc(Cl)cc12` (centres undefined) [CARPROFEN] returned a solubility of 5.5 µg/mL (≈ 20.1 µM).

`NC12CC3CC(CC(C3)C1)C2` [AMANTADINE]: the concentration in solution (solubility) came to 2120 µg/mL (≈ 14000 µM).

Compound `CCCCOc1cc(C(=O)NCCN(CC)CC)c2ccccc2n1` [DIBUCAINE] returned a solubility of 14 µg/mL (≈ 40.8 µM).

`CN1CCN(c2cc3c(cc2F)c(=O)c(C(=O)O)cn3-c2ccc(F)cc2)CC1` [DIFLOXACIN]: the solubility came to 100 µg/mL (≈ 250 µM).

In turn, `O=C(O)c1cc(-c2ccc(F)cc2F)ccc1O` [DIFLUNISAL] registered a solubility of 0.29 µg/mL (≈ 1.16 µM).

Take `CCOC(=O)c1ccc(N)cc1` [BENZOCAINE]: the solubility is 780 µg/mL (≈ 4720 µM).

The compound `O=C(O)c1cc(Br)c(O)cc1O` registered a solubility of 559 µg/mL (≈ 2400 µM).

`Cc1nnc(NS(=O)(=O)c2ccc(N)cc2)s1` [SULFAMETHIZOLE] yielded a solubility of 450 µg/mL (≈ 1660 µM).

In the case of `O=c1n(CCCN2CCN(c3cccc(Cl)c3)CC2)nc2ccccn12` [TRAZODONE], the solubility came to 127 µg/mL (≈ 342 µM).

For `Oc1ccc(I)cc1`, the concentration in solution (solubility) came to 4250 µg/mL (≈ 19300 µM).

Turning to `CC1=NS(=O)(=O)c2cc(Cl)ccc2N1` [DIAZOXIDE], the solubility was found to be 100 µg/mL (≈ 434 µM).

Take `CCN(CC)CCOC(=O)c1ccc(N)cc1` [PROCAINE]: the concentration in solution (solubility) was 4500 µg/mL (≈ 19000 µM).

For the compound `Cc1cccc(Nc2ccccc2C(=O)O)c1C` [MEFENAMIC ACID], the concentration in solution (solubility) came to 0.04 µg/mL (≈ 0.166 µM).

In turn, `NS(=O)(=O)c1cc2c(cc1C(F)(F)F)NCNS2(=O)=O` [HYDROFLUMETHIAZIDE] registered a solubility of 360 µg/mL (≈ 1090 µM).

For `Nc1ccc(/N=N/c2ccccc2)c(N)n1` [PHENAZOPYRIDINE], the solubility is 13.7 µg/mL (≈ 64.2 µM).

In the case of `CCn1cc(C(=O)O)c(=O)c2cc(F)c(N3CCNC(C)C3)c(F)c21` (centres undefined) [LOMEFLOXACIN], the solubility came out at 1630 µg/mL (≈ 4640 µM).

`CC(C)NCC(O)COc1cccc2[nH]ccc12` (centres undefined) [PINDOLOL]: the solubility turned out to be 40 µg/mL (≈ 161 µM).

On to `O=C1NC(=O)C(c2ccccc2)(c2ccccc2)N1` [PHENYTOIN], for which the solubility is 35 µg/mL (≈ 139 µM).

Compound `CN1C(C(=O)Nc2ccccn2)=C(O)c2ccccc2S1(=O)=O` [PIROXICAM] returned a solubility of 5.2 µg/mL (≈ 15.7 µM).

In the case of `CC(=O)OCC1=C(C(=O)O)N2C(=O)[C@@H](NC(=O)Cc3cccs3)[C@H]2SC1` [CEPHALOTHIN], the solubility came to 457 µg/mL (≈ 1150 µM).

In the case of `O=C(O)c1cn(-c2ccc(F)cc2)c2cc(N3CCNCC3)c(F)cc2c1=O` [SARAFLOXACIN], the concentration in solution (solubility) came to 280 µg/mL (≈ 727 µM).

`CCn1cc(C(=O)O)c(=O)c2cc(F)c(N3CCNCC3)cc21` [NORFLOXACIN] yielded a solubility of 559 µg/mL (≈ 1750 µM).

With `C#CCN(C)[C@H](C)Cc1ccccc1` [SELEGILINE], the concentration in solution (solubility) was 575 µg/mL (≈ 3070 µM).

The compound `Nc1ccc(Br)cc1C(=O)O` registered a solubility of 182 µg/mL (≈ 842 µM).

In turn, `C=CCN1CC[C@]23c4c5ccc(O)c4O[C@H]2C(=O)CC[C@@]3(O)[C@H]1C5` [NALOXONE] came in with a solubility of 414 µg/mL (≈ 1260 µM).

The compound `Nc1nc2nc[nH]c2c(=O)[nH]1` [GUANINE] returned a solubility of 5.6 µg/mL (≈ 37.1 µM).

Take `CCCCNc1ccc(C(=O)OCCN(C)C)cc1` [TETRACAINE]: the solubility turned out to be 258 µg/mL (≈ 976 µM).

As to `CCc1nc(N)nc(N)c1-c1ccc(Cl)cc1` [PYRIMETHAMINE], the solubility was 19.4 µg/mL (≈ 78 µM).

`CCCCNC(=O)NS(=O)(=O)c1ccc(C)cc1` [TOLBUTAMIDE]: the solubility came out at 93 µg/mL (≈ 344 µM).

The compound `NS(=O)(=O)c1cc2c(cc1Cl)N=C(CSCc1ccccc1)NS2(=O)=O` [BENZTHIAZIDE] registered a solubility of 6.4 µg/mL (≈ 14.8 µM).

In the case of `O=C(O)c1ccc(O)cc1` [PARABEN], the concentration in solution (solubility) was 4740 µg/mL (≈ 34300 µM).

The compound `NCCc1c[nH]c2ccccc12` [TRYPTAMINE] gave a solubility of 80 µg/mL (≈ 499 µM).

Turning to `CN(C)CCCN1c2ccccc2CCc2ccccc21` [IMIPRAMINE], the solubility worked out at 22 µg/mL (≈ 78.5 µM).
